pKi: −log10 of the molar value. Structures can show the parent of a compound that is named as a salt. Where two headings read alike, the source gives them in different places.
Key:
[1] = target: T1, D-2 (dopamine-2) receptors (Rattus norvegicus, UniProt P61169); experiment: biochemical; type: binding, male, Wistar rats; conditions: for Ki: rat striatum P2 fraction, 3H-spiperone 0.05 nM, read-out: Receptor Binding (Ki nM) D2
T1 construct: The D2 assay employed a P2 fraction from the striatum, the ligand ^3H-spiperone at a concentration of 0.05 nM; from tissue; host or cells: rat striatum, P2 fraction (synaptosomal membranes), male Wistar rats
Procedure: The dopamine D2 binding activity of compounds was determined using a P2 fraction (synaptosomal membranes) prepared from male, Wistar rats.
The data from this assay were analyzed by calculating the percent inhibition of the binding of the tritiated ligands by given concentrations of the test compound. Kl values, where given, were obtained from the logit analysis of concentration-inhibition curves.

[2] = system: Male, Fischer 344 rats; experiment: Block of Conditioned Avoidance Responding (Rat) test (CAR); conditions: for CAR 15 mg/kg IP Administration (% change CAR) / CAR 5 mg/kg IP Administration (% change CAR): negative number = blockade of CAR
Source text: Apparatus: Rat operant chambers, housed within sound attenuated booths, both from Capden Instruments Ltd., were used in this test. The test chamber (8" H x […] D) is constructed of aluminum and plexiglass with floor grid bars of stainless-steel (1/8" O.D.) spaced 9/16" apart. A stainless-steel operation level 1-1/2" wide projects 3/4" into the chamber and is positioned 2-2/8" above the grid floor. The shock stimulus is delivered via the grid floor by a Coulbourn Instruments solid state module. The parameters of the test and the collection of data are controlled automatically.
The rats are trained for two weeks to approach criterion levels in the avoidance test (90% avoidance rate). One-hour training sessions are run at about the same time each day for four or five days a week. The training session consists of 120 trials, with the conditioned stimuli presented every 30 sec. A trial begins with presentation of the conditioned stimuli (a light and a tone). If the rat responds by depressing the operant lever during the 15-second presentation of the conditioned stimuli, the trial is terminated and the animal is credited with a CAR. Failure to respond during the conditioned stimuli causes the presentation of the unconditioned stimulus (UCS), a 0.7 mA shock which is accompanied by a light and tone for five seconds. If the rat depressed the lever within the ten-second period, the shock and trial are terminated and an escape response recorded. If the rat fails to depress the lever during the UCS (shock), the trial is terminated after ten seconds of shock and the absence of a response is scored as a failure to escape. Intertrial level presses have no effect. If a rat performs at the 90% CAR level for two weeks, it is then run twice a week on the test schedule (see below) until baseline performance stabilized.
Trained rats are run in a one-hour session on two consecutive days at the same time and in the same test chamber each day. The sessions consist of 60 trials, one every minute. The conditioned stimuli are presented for 15 sec (maximum) and the unconditioned stimuli five sec (maximum). On Day 1, a vehicle solution is administered to the rats at a time preceding the trial run corresponding to the pretreatment time for the test compound. The route of administration and the volume of vehicle are also matched to that of the test compound.
The percent change in CAR on the drug treatment day compared to vehicle pretreatment day is the key measure. The percent change (% change) in CAR is determined using the following formula: % change CAR = ((% CAR for Day 2/% CAR for Day 1) x 100)-100 [formula]
A negative number indicates a blockade of CAR, whereas a positive number would indicate increased CAR. The test results are reported as the mean % change for the group of rats. Failure to escape, a measure of the general sedative potential of the compound, was calculated for each animal as follows: % Failures = # of Failures to Escape/# of trials [formula]
The % failures, viz., loss of escape, is also reported as a group mean. Failures to escape are monitored closely and a session is terminated if ten failures occurred.
In the Tables and formulas therein, OiPr is isopropoxy, Me is methyl, MeO is methoxy, Et is ethyl, Ph is phenyl, n-Bu is normal butyl, cC6H11 is cyclohexyl, BOC is t-butyloxycarbonyl, Ac is acetyl, and NT is not tested in that partcular test. The escape loss numbers are shown at CAR 5 mg/kg unless otherwise noted.

T1 sequence (P61169 whole entry): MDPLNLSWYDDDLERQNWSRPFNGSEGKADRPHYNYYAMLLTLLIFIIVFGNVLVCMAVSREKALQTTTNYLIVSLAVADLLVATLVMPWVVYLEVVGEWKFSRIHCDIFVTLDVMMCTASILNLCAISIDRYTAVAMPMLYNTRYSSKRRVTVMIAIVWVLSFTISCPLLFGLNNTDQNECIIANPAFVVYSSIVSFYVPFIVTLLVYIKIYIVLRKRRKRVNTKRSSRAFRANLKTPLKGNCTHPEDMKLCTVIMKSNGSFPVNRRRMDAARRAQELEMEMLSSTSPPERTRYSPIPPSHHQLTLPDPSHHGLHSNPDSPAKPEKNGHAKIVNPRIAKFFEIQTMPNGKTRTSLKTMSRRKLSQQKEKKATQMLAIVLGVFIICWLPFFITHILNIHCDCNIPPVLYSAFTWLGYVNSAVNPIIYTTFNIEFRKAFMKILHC

CC(C)Oc1ccccc1N1CCN(Cc2cccc(C(=O)N3C(C)CCC3C)c2)CC1 (stereo not drawn) [Compound 2]
Ki [1]: 4.7 nM

CC(C)Oc1ccccc1N1CCN(Cc2cccc(C(=O)N3CCCC3CO)c2)CC1 (stereo not drawn) [Compound 26]
Ki [1]: 9 nM | CAR 15 mg/kg IP Administration (% change CAR) [2]: -100% | (Escape Loss) % failures to escape ([2]; at CAR 15 mg/kg IP): 43%

CCOC(=O)C1CCCCN1C(=O)c1cccc(CN2CCN(c3ccccc3C)CC2)c1 (stereo not drawn) [Compound 18]
Ki [1]: 132 nM | CAR 15 mg/kg IP Administration (% change CAR) [2]: -24% | (Escape Loss) % failures to escape ([2]; at CAR 15 mg/kg IP): 9%

CC(C)Oc1ccccc1C1CCN(Cc2cccc(C(=O)N3CCOCC3)c2)CC1 [Compound 41]
Ki [1]: 9.6 nM | CAR 5 mg/kg IP Administration (% change CAR) [2]: -96% | (Escape Loss) % failures to escape ([2]; at CAR 5 mg/kg IP): 70%

CC(C)Oc1ccccc1N1CCN(Cc2cccc(C(=O)N3CCN(Cc4ccccc4)CC3)c2)CC1 [Compound 64]
Ki [1]: 40 nM | CAR IP Administration (% change CAR) at 30 mg/kg ([2]; 30 mg/kg IP): -23% | (Escape Loss) % failures to escape ([2]; at CAR 30 mg/kg IP): 2%

CC(C)Oc1ccccc1C1CCN(Cc2cccc(C(=O)N3[C@H](C)CCC[C@@H]3C)c2)CC1 [Compound 40]
CAR 5 mg/kg IP Administration (% change CAR) [2]: -98% | (Escape Loss) % failures to escape ([2]; at CAR 5 mg/kg IP): 37%

O=C(c1cccc(CN2CCN(c3ccccc3)CC2)c1)N1CCCCC1 [Compound 95]
CAR 15 mg/kg IP Administration (% change CAR) [2]: -82% | (Escape Loss) % failures to escape ([2]; at CAR 15 mg/kg IP): 11%

CC(C)Oc1ccccc1N1CCN(Cc2cccc(C(=O)N(C)CCc3ccccc3)c2)CC1 [Compound 43]
Ki [1]: 19 nM | CAR 15 mg/kg IP Administration (% change CAR) [2]: -77% | (Escape Loss) % failures to escape ([2]; at CAR 15 mg/kg IP): 0%

CC(C)Oc1ccccc1N1CCN(Cc2cccc(C(=O)N3CCC4CCCCC4C3)c2)CC1 (stereo not drawn) [Compound 61]
Ki [1]: 11.4 nM | CAR 5 mg/kg IP Administration (% change CAR) [2]: -36% | (Escape Loss) % failures to escape ([2]; at CAR 5 mg/kg IP): 3%

CC(C)Oc1ccccc1N1CCN(Cc2cccc(C(=O)NCCCCCCN)c2)CC1 [Compound 97]
Ki [1]: 15 nM | CAR 15 mg/kg IP Administration (% change CAR) [2]: -99% | (Escape Loss) % failures to escape ([2]; at CAR 15 mg/kg IP): 26%

CC(C)Oc1ccccc1N1CCN(Cc2cccc(S(=O)(=O)N3CCC(O)CC3)c2)CC1 [Compound 107, 1-[3-[[4[2-(1-Methylethoxy)phenyl]-1-piperazinyl]methyl]phenylsulfonyl]-4-hydroxypiperidine]
Ki [1]: 69 nM | CAR 5 mg/kg IP Administration (% change CAR) [2]: -95% | (Escape Loss) % failures to escape ([2]; at CAR 5 mg/kg IP): 5%

CC(C)Oc1ccccc1N1CCN(Cc2cccc(C(=O)N3CCC(=O)CC3)c2)CC1 [Compound 44]
pKi [1]: 7.38 | CAR 5 mg/kg IP Administration (% change CAR) [2]: -68% | (Escape Loss) % failures to escape ([2]; at CAR 5 mg/kg IP): 16%

O=C(c1cccc(CN2CCN(c3cc(Cl)cc(Cl)c3)CC2)c1)N1CCCCC1 [Compound 94]
Ki [1]: 21 nM | CAR 5 mg/kg IP Administration (% change CAR) [2]: -43% | (Escape Loss) % failures to escape ([2]; at CAR 5 mg/kg IP): 3%

CC(C)Oc1ccccc1N1CCN(Cc2cccc(C(=O)N3C(C)(C)CCCC3(C)C)c2)CC1 [Compound 12]
Ki [1]: 4.7 nM | CAR 15 mg/kg IP Administration (% change CAR) [2]: -92% | (Escape Loss) % failures to escape ([2]; at CAR 15 mg/kg IP): 9%

COc1ccccc1N1CCN(Cc2cccc(C(=O)N3CCCCCC3)c2)CC1 [Compound 85]
CAR 5 mg/kg IP Administration (% change CAR) [2]: -95% | (Escape Loss) % failures to escape ([2]; at CAR 5 mg/kg IP): 22%

CC(C)Oc1ccccc1N1CCN(Cc2cccc(C(=O)N3CCCC3)c2)CC1 [Compound 52]
CAR IP Administration (% change CAR) at 7.5 mg/kg ([2]; 7.5 mg/kg IP): -98% | (Escape Loss) % failures to escape ([2]; at CAR 7.5 mg/kg IP): 0%

COc1ccc(CN2CCC(c3ccccc3OC(C)C)CC2)cc1C(=O)N1[C@H](C)CCC[C@@H]1C [Compound 15]
Ki [1]: 43 nM | CAR 15 mg/kg IP Administration (% change CAR) [2]: -86% | (Escape Loss) % failures to escape ([2]; at CAR 15 mg/kg IP): 30%

COc1ccc(CN2CCN(c3ccccc3OC(C)C)CC2)cc1C(=O)N1CCCCC1 [Compound 29]
Ki [1]: 32 nM | CAR 5 mg/kg IP Administration (% change CAR) [2]: -98% | (Escape Loss) % failures to escape ([2]; at CAR 5 mg/kg IP): 50%

CCN(CC)C(=O)c1cccc(CN2CCN(c3ccccc3OC(C)C)CC2)c1 [Compound 68]
CAR 5 mg/kg IP Administration (% change CAR) [2]: -96% | (Escape Loss) % failures to escape ([2]; at CAR 5 mg/kg IP): 14%

CCOC(=O)C1CCN(C(=O)c2ccccc2CN2CCN(c3ccccc3OC(C)C)CC2)CC1 [Compound 108]
Ki [1]: 10.4 nM

O=C(c1cccc(CN2CCN(c3cccc([N+](=O)[O-])c3)CC2)c1)N1CCCCC1 [Compound 49]
CAR 15 mg/kg IP Administration (% change CAR) [2]: -78% | (Escape Loss) % failures to escape ([2]; at CAR 15 mg/kg IP): 0%

CC(C)Oc1ccccc1N1CCN(Cc2ccccc2C(=O)N2CCOCC2)CC1 [Compound 110]
Ki [1]: 32 nM

CC(C)Oc1ccccc1N1CCN(CCCCc2ccc(C(=O)N3CCCCC3)cc2)CC1 [Compound 102, 1-[4-[4-[4-[2-(1-Methylethoxy)phenyl]-1-piperazinyl]butyl]benzoyl]piperidine dihydrobromide]
Ki [1]: 7.2 nM

CC(C)Oc1ccccc1N1CCN(Cc2ccc([N+](=O)[O-])c(C(=O)N3CCCCC3)c2)CC1 [Compound 7]
Ki [1]: 85 nM

CC(C)Oc1ccccc1N1CCN(CCCC(=O)c2ccc(C(=O)N3CCCCC3)cc2)CC1 [Compound 100, fumarate]
Ki [1]: 11 nM

C[C@@H]1CCC[C@H](C)N1C(=O)c1cccc(CN2CCN(c3ccccc3C#N)CC2)c1 [Compound 3]
Ki [1]: 303 nM

COc1ccc(CN2CCN(c3ncccn3)CC2)cc1C(=O)N1[C@H](C)CCC[C@@H]1C [Compound 6]
Ki [1]: 808 nM

CC(C)Oc1ccccc1N1CCN(Cc2ccccc2C(=O)N2CCCC(C)(C)C2)CC1 [Compound 109]
Ki [1]: 7 nM

O=C(c1cccc(CN2CCN(c3ccccc3F)CC2)c1)N1CCCCC1 [Compound 22]
CAR 15 mg/kg IP Administration (% change CAR) [2]: -84% | (Escape Loss) % failures to escape ([2]; at CAR 15 mg/kg IP): 21%

CC(C)Oc1ccccc1N1CCN(CCCC(O)c2ccc(C(=O)N3CCCCC3)cc2)CC1 (stereo not drawn) [Compound 101, bisoxalate]
Ki [1]: 13 nM

CCCCN(CCCC)C(=O)c1cccc(CN2CCN(c3ccccc3OC(C)C)CC2)c1 [Compound 69]
CAR 15 mg/kg IP Administration (% change CAR) [2]: -6% | (Escape Loss) % failures to escape ([2]; at CAR 15 mg/kg IP): 0%

CC(C)Oc1ccccc1N1CCN(Cc2cccc(C(=O)N3CC4CCC(CC4)C3)c2)CC1 [Compound 96]
CAR 15 mg/kg IP Administration (% change CAR) [2]: -98% | (Escape Loss) % failures to escape ([2]; at CAR 15 mg/kg IP): 67%

O=C(c1cccc(CN2CCN(c3cccc(Cl)c3)CC2)c1)N1CCCCC1 [Compound 91]
CAR 5 mg/kg IP Administration (% change CAR) [2]: -36% | (Escape Loss) % failures to escape ([2]; at CAR 5 mg/kg IP): 21%

CC(C)Oc1ccccc1N1CCN(Cc2cccc(C(=O)N3CCC3)c2)CC1 [Compound 51]
CAR 15 mg/kg IP Administration (% change CAR) [2]: -88% | (Escape Loss) % failures to escape ([2]; at CAR 15 mg/kg IP): 0%

CC(C)Oc1ccccc1N1CCN(Cc2cccc(C(=O)N3CCC4CCCCC43)c2)CC1 (stereo not drawn) [Compound 4]
Ki [1]: 5.6 nM

Source: EP0563345B1, “NOVEL 4-ARYLPIPERAZINES AND 4-ARYLPIPERIDINES” (MCNEILAB, INC., priority 1991, dated 1993)
